Assay results from US10323020B2, “Substituted piperidinyl tetrahydroquinolines” (Bayer Pharma Aktiengesellschaft, priority 2013, dated 2019).
Where a name gives a salt, the structure may show the parent alone.

What was measured:
[1] = target: recombinant human α2C receptor (Homo sapiens (Human), UniProt P18825); assay: Antagonism against the adrenoreceptor α2C (luminescence, noradrenaline-stimulated CHO cells); assay type: cell-based; details: noradrenaline 20 nM; CHO cell line with Gαqi3 and mtOb
recombinant human α2C receptor, sequence (P18825 whole entry, the tested form may be a part): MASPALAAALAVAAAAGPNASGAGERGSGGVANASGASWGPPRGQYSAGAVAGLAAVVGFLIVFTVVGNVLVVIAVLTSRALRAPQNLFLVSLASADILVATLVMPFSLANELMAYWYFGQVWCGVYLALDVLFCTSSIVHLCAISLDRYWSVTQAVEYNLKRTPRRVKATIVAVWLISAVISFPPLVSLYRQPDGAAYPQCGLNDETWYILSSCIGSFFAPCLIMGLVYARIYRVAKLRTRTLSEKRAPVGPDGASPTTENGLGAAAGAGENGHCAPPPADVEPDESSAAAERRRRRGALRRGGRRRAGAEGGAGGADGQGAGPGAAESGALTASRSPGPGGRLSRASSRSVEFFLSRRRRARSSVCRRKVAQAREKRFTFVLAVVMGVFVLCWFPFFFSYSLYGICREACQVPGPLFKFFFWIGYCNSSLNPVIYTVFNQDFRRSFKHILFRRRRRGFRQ
Method: Antagonism against the adrenoreceptor α1A was tested using a recombinant human α1A receptor CHO cell line which additionally also recombinantly expresses mtAeq (mitochondrial aequorin). Antagonism against the adrenoreceptor α2A was tested using a recombinant human α2A-Gα16 receptor fusion protein CHO cell line (PerkinElmer Life Sciences) which additionally also recombinantly expresses mtAeq. Antagonism against the adrenoreceptor α2B was tested using a recombinant human α2B receptor CHO cell line (PerkinElmer Life Sciences) which additionally also recombinantly expresses mtAeq. Antagonism against the adrenoreceptor α2C was tested using a recombinant human α2C receptor CHO cell line which additionally also recombinantly expresses a chimaric G protein (Gαqi3) and mtOb (mitochondrial obelin).
The cells were cultivated at 37° C. and 5% CO2 in Dulbecco's modified Eagle's Medium/NUT mix F12 with L-glutamine which additionally contains 10% (v/v) inactivated foetal calf serum, 1 mM sodium pyruvate, 0.9 mM sodium bicarbonate, 50 U/ml penicillin, 50 μg/ml streptomycin, 2.5 μg/ml amphotericin B and 1 mg/ml Geneticin. The cells were passaged with enzyme-free Hank's-based cell dissociation buffer. All cell culture reagents used were from Invitrogen (Carlsbad, USA).
Luminescence measurements were carried out on white 384-well microtitre plates. 2000 cells/well were plated in a volume of 25 μl and cultivated for one day at 30° C. and 5% CO2 in cell culture medium with coelenterazine (α2A and α2B: 5 μg/ml; α1a/c and α2C: 2.5 μg/ml). Serial dilutions of the test substances (10 μl) were added to the cells. After 5 minutes, noradrenaline was added to the cells (35 μl; final concentrations: 20 nM (α1a/c and α2C) or 200 nM (α2A and α2B)), and the emitted light was measured for 50 seconds using a CCD (charge-coupled device) camera (Hamamatsu Corporation, Shizuoka, Japan) in a light-tight box. The test substances were tested up to a maximum concentration of 10 μM. The IC50 values were calculated from the appropriate dose-response curves.

[2] = tested on: diabetic (ZDFfa/fa) and healthy rats (Wistar); assay: Assay of perfusion-enhancing substances (microcirculation), laser doppler at the paw; assay type: in vivo, rat
Source text: In diabetic (ZDFfa/fa) and healthy rats (Wistar), a laser doppler probe was fastened under anaesthesia conditions (isoflurane anaesthesia) at the sole of the paw for measuring cutaneous microcirculation. The test animals were once treated orally with the test substances. During the experiment, microperfusion and temperature of the lower extremities were documented continuously. Here, a temperature-sensitive laser doppler probe (Periflux, O2C) was fastened with adhesive to the paws of the animals, allowing the measurement of microperfusion and skin temperature. The microcirculation measurement values were measured on both paws 30 min after oral administration of the test substance. […] Also stated is the MED for the significant increase of skin temperature (ttest).
Microcirculation data for adrenoreceptor α2C receptor antagonist of the compound of Example 8 and for the comparative substance ORM12741, an AR α2c receptor antagonist from Orion, are shown in Table 3: […]

[3] = tested on: conscious female Wistar rats; assay: Radiotelemetric measurement of blood pressure and heart rate of conscious rats; assay type: in vivo, rat; details: oral 10 mg/kg
Source text: A commercially available telemetry system from Data Sciences International DSI, USA, was employed for the measurements on conscious rats described below. The system consists of 3 main components: (1) implantable transmitters (Physiotel® telemetry transmitter), (2) receivers (Physiotel® receiver), which are linked via a multiplexer (DSI Data Exchange Matrix) to a (3) data acquisition computer. The telemetry system makes it possible to continuously record blood pressure, heart rate and body motion of conscious animals in their usual habitat.
The studies were conducted on adult female Wistar rats with a body weight of >200 g. After transmitter implantation, the experimental animals were housed singly in type III Makrolon® cages. They had free access to standard feed and water. The day/night rhythm in the test laboratory was set by changing the illumination of the room.
The telemetry transmitters used (PA-C40, DSI) were surgically implanted under aseptic conditions in the experimental animals at least 14 days before the first experimental use.
For the implantation, the fasted animals were anaesthetized with isoflurane (IsoFlo®, Abbott, initiation 5%, maintenance 2%) and shaved and disinfected over a large area of their abdomens. […]
Each of the instrumented rats living in the system was assigned a separate receiving antenna (RPC-1 Receiver, DSI). […] The signals emitted were detected online by a data acquisition system (Dataquest™ A.R.T. for Windows, DSI) and processed accordingly.
In the standard procedure, the following were measured for 10-second periods in each case: (1) systolic blood pressure (SBP), (2) diastolic blood pressure (DBP), (3) mean arterial pressure (MAP) and (4) heart rate (HR) and (5) activity (ACT). These parameters were measured over 24 hours after administration.
The acquisition of measurements was repeated under computer control at 5-minute intervals. The source data obtained as absolute values were corrected in the diagram with the currently measured barometric pressure (Ambient Pressure Reference Monitor, APR-1, DSI). […]

SMILES | IC50 [1] | also measured
CC1(C)CN(c2ncc(C(=O)N3CCC(N4CCc5ccccc5C4)CC3)cn2)CCO1 [Example 15, [4-(3,4-Dihydroisoquinolin-2(1H)-yl)piperidin-1-yl][2-(2,2-dimethylmorpholin-4-yl)pyrimidin-5-yl]methanone] | 0.068 µM | –
CC1CN(c2ncc(C(=O)N3CCC(N4CCc5ccccc5C4)CC3)cn2)CC(C)O1 (stereo not drawn) [Example 14, [4-(3,4-Dihydroisoquinolin-2(1H)-yl)piperidin-1-yl][2-(2,6-dimethylmorpholin-4-yl)pyrimidin-5-yl]methanone (Trans Isomer)] | 0.024 µM | –
COCCNc1ncc(C(=O)N2CCC(N3CCc4ccccc4C3)CC2)cn1 [Example 1, [4-(3,4-Dihydroisoquinolin-2(1H)-yl)piperidin-1-yl]{2-[(2-methoxyethyl)amino]pyrimidin-5-yl}methanone] | 0.082 µM | –
O=C(c1cnc(N2CCS(=O)(=O)CC2)nc1)N1CCC(N2CCc3ccccc3C2)CC1 [Example 12, [4-(3,4-Dihydroisoquinolin-2(1H)-yl)piperidin-1-yl][2-(1,1-dioxidothiomorpholin-4-yl)pyrimidin-5-yl]methanone] | 0.026 µM | –
O=C(O)[C@H]1CCCN1c1ncc(C(=O)N2CCC(N3CCc4ccccc4C3)CC2)cn1 [Example 11, 1-(5-{[4-(3,4-Dihydroisoquinolin-2(1H)-yl)piperidin-1-yl]carbonyl}pyrimidin-2-yl)-D-proline Hydrochloride] | 0.096 µM | –
COc1ccc2c(c1)CCN(C1CCN(C(=O)c3cnc(N4CC5(COC5)C4)nc3)CC1)C2 [Example 10, [4-(6-Methoxy-3,4-dihydroisoquinolin-2(1H)-yl)piperidin-1-yl][2-(2-oxa-6-azaspiro[3.3]hept-6-yl)pyrimidin-5-yl]methanone] | 0.03 µM | –
COC[C@@]1(C)CCCN2CCc3c(oc4ccccc34)[C@@H]21 [ORM-12741, reference compound] | – | factor by which microcirculation is improved at the MED compared to placebo ([2]; single oral dose at MED, 30 min after administration): 1.9 x; MED microcirculation ([2]; single oral dose, measured 30 min after administration, significant vs placebo): 0.1 mg/kg; MED skin temperature ([2]; single oral dose, significant increase of skin temperature (ttest)): 0.01 mg/kg; blood pressure [3]: additional reduction in blood pressure
CCC(COC)Nc1ncc(C(=O)N2CCC(N3CCc4ccccc4C3)CC2)cn1 (racemic) [Example 6, (rac)-[4-(3,4-Dihydroisoquinolin-2(1H)-yl)piperidin-1-yl]{2-[(1-methoxybutan-2-yl)amino]pyrimidin-5-yl}methanone] | 0.031 µM | –
CCC(COC)Nc1ncc(C(=O)N2CCC(N3CCc4ccc(F)cc4C3)CC2)cn1 (racemic) [Example 2, (rac)-[4-(7-Fluoro-3,4-dihydroisoquinolin-2(1H)-yl)piperidin-1-yl]{2-[(1-methoxybutan-2-yl)amino]pyrimidin-5-yl}methanone] | 0.026 µM | –
CCC(COC)Nc1ncc(C(=O)N2CCC(N3CCc4cc(OC)ccc4C3)CC2)cn1 (racemic) [Example 5, (rac)-{2-[(1-Methoxybutan-2-yl)amino]pyrimidin-5-yl}[4-(6-methoxy-3,4-dihydroisoquinolin-2(1H)-yl)piperidin-1-yl]methanone] | 0.02 µM | –
CCC(CO)Nc1ncc(C(=O)N2CCC(N3CCc4ccccc4C3)CC2)cn1 (racemic) [Example 7, (rac)-[4-(3,4-Dihydroisoquinolin-2(1H)-yl)piperidin-1-yl]{2-[(1-hydroxybutan-2-yl)amino]pyrimidin-5-yl}methanone] | 0.068 µM | –
O=C(c1cnc(N2CC3(COC3)C2)nc1)N1CCC(N2CCc3ccc(F)cc3C2)CC1 [Example 9, [4-(7-Fluoro-3,4-dihydroisoquinolin-2(1H)-yl)piperidin-1-yl][2-(2-oxa-6-azaspiro[3.3]hept-6-yl)pyrimidin-5-yl]methanone] | 0.016 µM | –
CC1CN(c2ncc(C(=O)N3CCC(N4CCc5ccccc5C4)CC3)cn2)CC(C)O1 (stereo not drawn) [Example 13, [4-(3,4-Dihydroisoquinolin-2(1H)-yl)piperidin-1-yl][2-(2,6-dimethylmorpholin-4-yl)pyrimidin-5-yl]methanone (Cis Isomer)] | 0.047 µM | –
CCC(COC)Nc1ncc(C(=O)N2CCC(N3CCc4ccc(OC)cc4C3)CC2)cn1 (racemic) [Example 4, (rac)-{2-[(1-Methoxybutan-2-yl)amino]pyrimidin-5-yl}[4-(7-methoxy-3,4-dihydroisoquinolin-2(1H)-yl)piperidin-1-yl]methanone] | 0.005 µM | –
